Results published in US20200283498A1, “T CELL RECEPTOR FUSIONS AND CONJUGATES AND METHODS OF USE THEREOF” (Altor Bioscience LLC, priority 2008, published 2020).

Experiments:
[1] = tested on: p53 (aa 264-272) peptide-loaded T2 cells and CTLL-2 cells; experiment: Cell-cell conjugation assay (flow cytometry); type: cell-based, human T2 cells, mouse CTLL-2 cells
Method: FIG. 20A, FIG. 20B, FIG. 20C, and FIG. 20D depict in vitro conjugation of IL-2 receptor-bearing immune cells with antigen presenting target cells mediated by scTCR/IL-2 fusion protein. T2 cells were loaded with either p53 (aa 264-272) or p53 (aa 149-157) (control) peptides and then labeled with HE. CTLL-2 cells were labeled with calcein AM. Labeled cells were mixed and incubated in the presence or absence of 264scTCR/IL-2 fusion protein and the samples were analyzed by flow cytometry. Assay conditions including loading peptide used and presence or absence of fusion protein are indicated beneath each histogram. Single stained regions are marked 1 and 3 and the double stained cell poplulation is marked 2.
In this experiment, T2 cells pulsed with either the 149 or 264 peptide. CTLL-2 cells were hydrodiethidium (HE) labeled and incubated for 20 minutes at RT with an equal number of calcein-AM labeled T2 cells pulsed with either 50 μg of 149 or 264 peptide. […] In contrast, conjugate formation was not observed with the mixture that included the 149 peptide pulsed T2 cells (B; 0.88%). Cell samples were washed one time before analysis on the flow cytometer.
Samples were analyzed by flow cytometry. […] Thus, the scTCR/IL-2 fusion protein could be useful in a therapeutic approach for bringing together immune effector cells and tumor cells and stimulating immune cell-mediated activity against the tumor.

YAC-1 target cells = experiment: Lytic activity of stimulated nude mouse splenocytes (calcein release); type: cell-based; conditions: four days in equivalent molar amounts; YAC-1 targets
[2] = tested on: immune cells (splenocytes, lymph nodes, bone marrow); experiment: In vivo activation of immune cells in A375 tumor-bearing nude mice
Text: FIG. 19A and FIG. 19B depict in vivo activation of immune cells in mice following scTCR/IL-2 treatment. […] Splenocytes were isolated at the indicated times and analyzed by flow cytometry for expression of CD25, CD122 or pan-NK markers. The plots indicate the percentage of CD25, CD122 or pan-NK-positive staining (dark line) compared with splenocyte staining with an isotype control mAb (red line).
The effect of the scTCR/IL-2 fusion proteins on immune cells was also investigated in vivo. […] Changes in IL-2R subunit expression were also assessed in immune cells isolated from the spleens, lymph nodes and bone marrow of 264scTCR/IL-2- or MART-1scTCR/IL-2-treated mice.

[3] = tested on: p53+/HLA-A2.1+ MDA-MB-231 tumor cells; experiment: MDA-MB-231 xenograft tumor growth in nude mice; type: in vivo; conditions: compared to PBS; 9 doses i.v.
[4] = tested on: p53+/HLA-A2.1+ PANC1 tumor cells; experiment: PANC1 xenograft tumor growth in nude mice; type: in vivo; conditions: 9 doses i.v.
Method: (§1) The tumor lines used in this study were MBA-MD-231 (p53+/HLA-A2.1+), PANC1 (p53+/HLA-A2.1+), AsPC1(p53-/HLA-A2.1-) and HT29 (p53+/HLA-A2.1-). […] J. Immunol. 176:3223. Primary tumors derived from these cells were established in nude mice following subcutaneous injection. Mice were then treated as previously described with 264scTCR/IL-2, rhIL-2 or PBS and tumor volumes were measured.

[5] = tested on: p53-/HLA-A2.1- AsPC1 tumor cells; experiment: AsPC1 xenograft tumor growth in nude mice; type: in vivo; conditions: 9 doses i.v.
Method: as §1

[6] = tested on: HT29 (p53+/HLA-A2.1-) tumors; experiment: HT29 xenograft tumor growth in nude mice; type: in vivo; conditions: not shown
Method: as §1

CD45R+ cells in tumors = experiment: Immune cell infiltration into tumors (CD45R immunohistochemistry); type: in vivo, nude mice
A375 tumors = experiment: Tumor infiltration of adoptively transferred splenocytes pre-coated with scTCR/IL-2; type: in vivo, nude mice; conditions: 24 hrs after transfer of pre-coated splenocytes
Method: FIG. 28 depicts targeted tumor infiltration of adoptively transferred splenocytes pre-coated with scTCR/IL-2. […] Boxes, interquartile range of distribution (25th-75th percentile); line within box, median; whisker, 5th-[…]. *, P<0.0001; **, P<0.0001. At least three tumors per group and 10 fields per tumor were analyzed.
The activated splenocytes were isolated and incubated with the respective scTCR/IL-2 fusion proteins in vitro to coat the surface of the cells prior to transfer into A375 tumor bearing nude mouse recipients. Tumors were then isolated 24 hrs later and levels of CD45R+NK cells were assessed.

[7] = tested on: human A375 cell line tumors; experiment: A375 primary tumor growth model in nude mice
[8] = tested on: human NSCLC A549-A2 tumor cells; experiment: Adoptive transfer of preincubated NK cells in A549-A2 experimental metastasis model; type: in vivo, athymic nude mice; conditions: CTX 200 mg/kg ip days 14, 21; NK cells preincubated with the protein iv days 16, 22 (CTX group: no NK cells)

264scTCR/IL-2: soluble three domain single-chain TCR specific to human p53 (aa 264-272)/HLA-A2.1 linked to human IL-2 via a peptide linker
conjugated (double stained) cells, share of total population ([1]; 149 control peptide-loaded T2 cells + CTLL-2 cells, fusion protein present (or fusion protein absent)): approximately 0.9% | conjugated (double stained) cells, share of total population ([1]; 149 control peptide-loaded T2 cells + CTLL-2 cells, fusion protein present (or fusion protein absent), listed as 264 scTCR-IL-2): 0.88% | conjugated (double stained) cells, share of total population ([1]; 264 peptide-loaded T2 cells + CTLL-2 cells, fusion protein present (1 μg)): 3.25% | lytic activity of stimulated mouse splenocytes (YAC-1 target cells): Equivalent levels of lytic activity | NK cells ([2]; repeated administration): treatment-dependent increase in NK cells | lymph nodes and spleens ([2]; repeated daily i.v. 32 μg/dose): enlargement of lymph nodes and spleens | serum IFN-γ levels ([2]; repeated daily i.v. 32 μg/dose): increase in serum IFN-γ levels | expression of CD122 and CD25 in cells from lymph nodes and bone marrow ([2]; repeated daily treatment): Elevated expression | Splenocytes expressing IL-2Rα (CD25) or IL-2≈ (CD122) ([2]; repeated daily treatments, peak one day after fourth treatment): increased approximately three-fold | tumor growth [3]: significant antitumor effect | tumor growth [4]: significant antitumor effects | tumor growth [5]: tumor outgrowth was not inhibited | tumor growth [6]: tumor outgrowth was not inhibited | CD45R-positive cells in A375 tumors (CD45R+ cells in tumors; A375 (p53+/HLA.A2.1+) tumor sections): Complete tumor infiltration of large CD45R+ cells | CD45R+ cell infiltration (CD45R+ cells in tumors; A375 tumors, 10 μg/dose, four days of daily treatment): 14.5 CD45R+ cells/field of view | CD45R-positive cells in AsPC1 tumors (CD45R+ cells in tumors; AsPC1 (p53-/HLA-A2.1-) tumor sections): no differences were observed between treatment groups | cells bound with fusion protein infiltrating into tumors (A375 tumors): 3.0 BF1+ cells/field of view | infiltration of CD45R+ cells (A375 tumors): 10.3 CD45R+ cells/field of view | mice that developed tumors ([7]; 3 μg dose, 9 doses): all of the mice developed tumors | average tumor size ([7]; 3 μg dose, 9 doses, vs PBS): significantly smaller than that of the PBS treated mice | A375 tumor growth compared to PBS ([7]; 0.5 mg/kg i.v., four daily injections, 10-day rest, four more): potent antitumor activity | mice that developed tumors ([7]; 0.5 mg/kg/dose, 9 doses): six of the eight | tumor weight at the end of the study ([7]; 1.6 mg/kg and 0.5 mg/kg doses vs rhIL-2 0.4 mg/kg): significantly more effective at reducing tumor burden than the high dose of rhIL-2 | mice that developed tumors ([7]; 1.6 mg/kg i.v., 9 doses, tumors established three days): 50% | mice that developed tumors ([7]; 1.6 mg/kg/dose, 9 doses): four of the eight | tumor growth ([7]; 0.5 or 0.2 mg/kg, four daily injections, 10-day rest, four more, compared with 0.125 mg/kg rhIL-2): significantly inhibited tumor growth | tumor growth following two dosing cycles ([7]; 264scTCR/IL-2 0.5 mg/kg daily x4 per cycle, rhIL-2 0.4 mg/kg every 8 hrs for five days per cycle): inhibited tumor growth to a similar degree | growth of well-established tumors ([7]; tumors grown to 75 or 200 mm^3, 9 doses i.v.): marked inhibition of tumor growth and partial to complete regression of tumors in most mice

O=P1(N(CCCl)CCCl)NCCCO1 (centres unmarked) [CTX, cyclophosphamide, reference compound]
Median survival [8]: 52 days
